In patent US20140228349A1, “5,7-SUBSTITUTED-IMIDAZO[1,2-C]PYRIMIDINES” (Array BioPharma Inc., priority 2011, published 2014):

Assays:
Assay type in all cases: biochemical
[1] = molecular target: T1, JAK1 (Homo sapiens, UniProt P23458); test: JAK1 Inhibition Assay (Omnia kinase fluorescence peptide substrate); conditions: averaged IC50 ranges; 40 μM (Km app) or 1 mM ATP, 15 nM JAK1
T1 construct: purchased Invitrogen Corporation, Carlsbad, Calif; IVGN PV4775
Outline: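 15 nM JAK1, 8 μM Omnia Y12 peptide, 40 μM (Km app) or 1 mM ATP; 25 mM HEPES pH 7.4, 10 mM MgCl2, 2% DMSO. Fluorescence (ex 360/em 485 nm) read every 50 s over 45 min. IC50 by 4-parameter fit of percent of control, top dose 10 μM.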

[2] = molecular target: T2, JAK2 (Homo sapiens, UniProt O60674); test: JAK2 Inhibition Assay (Omnia kinase fluorescence peptide substrate); conditions: averaged IC50 ranges; 25 μM (Km app) or 1 mM ATP, 5 nM JAK2
T2 construct: purchased Invitrogen Corporation, Carlsbad, Calif; IVGN PV4288

[3] = molecular target: T3, Human Tyk2 kinase domain (Homo sapiens, UniProt P29597); test: Tyk2 Inhibition Assay (Omnia kinase fluorescence peptide substrate); conditions: averaged IC50 ranges; 10 μM (Km app) or 1 mM ATP, 2 nM Tyk2
T3 construct: comprising amino acids 886 to 1187; His10 (10 histidine residues) (C, cleaved yes); made in house
T3 sequence (P29597 886-1187): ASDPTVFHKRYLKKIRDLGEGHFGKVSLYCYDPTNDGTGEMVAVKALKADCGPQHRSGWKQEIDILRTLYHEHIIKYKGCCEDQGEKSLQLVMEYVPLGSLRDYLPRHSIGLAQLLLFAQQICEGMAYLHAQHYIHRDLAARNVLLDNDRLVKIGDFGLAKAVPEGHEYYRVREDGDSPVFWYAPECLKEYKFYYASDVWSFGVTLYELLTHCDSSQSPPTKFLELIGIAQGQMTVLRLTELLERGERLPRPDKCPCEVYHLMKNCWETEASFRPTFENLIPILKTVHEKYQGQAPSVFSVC
Outline: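 Phosphorylation of 8 μM Omnia Y12 peptide followed kinetically by Sox fluorescence, ex 360/em 485 nm, every 50 s for 45 min. Enzyme: 2 nM Tyk2 kinase domain (aa 886–1187, His tag removed); ATP at 10 μM (Km app) or 1 mM; buffer HEPES pH 7.4 with MgCl2, Triton X-100, DTT. 10-point curves up to 10 μM, IC50 from 4-parameter logistic fit.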

[4] = molecular target: T4, JAK3 (Homo sapiens, UniProt P52333); test: JAK3 Inhibition Assay (Omnia kinase fluorescence peptide substrate); conditions: averaged IC50 ranges; 10 μM (Km app) or 1 mM ATP, 2.5 nM JAK3
T4 construct: purchased Invitrogen Corporation, Carlsbad, Calif; IVGN PV4080
T4 sequence (P52333 1-1124): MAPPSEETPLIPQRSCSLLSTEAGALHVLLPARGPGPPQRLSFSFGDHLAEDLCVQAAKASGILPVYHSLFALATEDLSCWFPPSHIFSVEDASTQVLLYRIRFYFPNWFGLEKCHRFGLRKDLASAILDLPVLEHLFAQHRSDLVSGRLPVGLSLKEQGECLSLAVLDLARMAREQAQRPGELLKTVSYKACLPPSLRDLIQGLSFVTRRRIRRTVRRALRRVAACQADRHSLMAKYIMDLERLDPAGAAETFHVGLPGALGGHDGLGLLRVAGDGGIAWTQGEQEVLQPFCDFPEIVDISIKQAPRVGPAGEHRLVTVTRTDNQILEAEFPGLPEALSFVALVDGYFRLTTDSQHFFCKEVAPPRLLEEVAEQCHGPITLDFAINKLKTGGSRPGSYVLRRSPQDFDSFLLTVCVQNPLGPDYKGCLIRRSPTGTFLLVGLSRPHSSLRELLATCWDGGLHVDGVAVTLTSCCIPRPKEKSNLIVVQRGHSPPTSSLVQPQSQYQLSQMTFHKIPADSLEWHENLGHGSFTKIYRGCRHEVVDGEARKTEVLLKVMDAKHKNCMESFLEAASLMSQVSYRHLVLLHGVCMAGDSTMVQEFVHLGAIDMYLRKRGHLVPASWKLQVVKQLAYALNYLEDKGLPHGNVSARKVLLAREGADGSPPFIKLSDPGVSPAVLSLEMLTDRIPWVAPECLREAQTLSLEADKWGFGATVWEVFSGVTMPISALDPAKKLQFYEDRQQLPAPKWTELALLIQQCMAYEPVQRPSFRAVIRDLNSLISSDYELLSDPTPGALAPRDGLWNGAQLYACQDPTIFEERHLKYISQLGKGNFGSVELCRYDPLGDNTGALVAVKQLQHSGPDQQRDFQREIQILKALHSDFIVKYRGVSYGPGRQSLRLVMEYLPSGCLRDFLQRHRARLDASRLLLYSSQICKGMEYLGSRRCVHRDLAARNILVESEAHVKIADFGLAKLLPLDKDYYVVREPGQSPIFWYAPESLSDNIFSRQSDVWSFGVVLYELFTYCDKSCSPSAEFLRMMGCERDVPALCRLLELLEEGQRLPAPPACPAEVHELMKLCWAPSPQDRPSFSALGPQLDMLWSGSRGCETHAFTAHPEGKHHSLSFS
Outline: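 IC50 is the concentration giving 50 percent of control on a 4-parameter logistic fit of 10-point, 3-fold dilutions from a 10 μM top dose, at 2% final DMSO. Kinetic Sox fluorescence (360/485 nm) was monitored every 50 s for 45 min. Mix: JAK3 2.5 nM, Omnia Y7 peptide 10 μM, ATP 10 μM (Km app) or 1 mM, in HEPES pH 7.4 buffer with MgCl2, Triton X-100 and DTT.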

T1 sequence (P23458 whole entry): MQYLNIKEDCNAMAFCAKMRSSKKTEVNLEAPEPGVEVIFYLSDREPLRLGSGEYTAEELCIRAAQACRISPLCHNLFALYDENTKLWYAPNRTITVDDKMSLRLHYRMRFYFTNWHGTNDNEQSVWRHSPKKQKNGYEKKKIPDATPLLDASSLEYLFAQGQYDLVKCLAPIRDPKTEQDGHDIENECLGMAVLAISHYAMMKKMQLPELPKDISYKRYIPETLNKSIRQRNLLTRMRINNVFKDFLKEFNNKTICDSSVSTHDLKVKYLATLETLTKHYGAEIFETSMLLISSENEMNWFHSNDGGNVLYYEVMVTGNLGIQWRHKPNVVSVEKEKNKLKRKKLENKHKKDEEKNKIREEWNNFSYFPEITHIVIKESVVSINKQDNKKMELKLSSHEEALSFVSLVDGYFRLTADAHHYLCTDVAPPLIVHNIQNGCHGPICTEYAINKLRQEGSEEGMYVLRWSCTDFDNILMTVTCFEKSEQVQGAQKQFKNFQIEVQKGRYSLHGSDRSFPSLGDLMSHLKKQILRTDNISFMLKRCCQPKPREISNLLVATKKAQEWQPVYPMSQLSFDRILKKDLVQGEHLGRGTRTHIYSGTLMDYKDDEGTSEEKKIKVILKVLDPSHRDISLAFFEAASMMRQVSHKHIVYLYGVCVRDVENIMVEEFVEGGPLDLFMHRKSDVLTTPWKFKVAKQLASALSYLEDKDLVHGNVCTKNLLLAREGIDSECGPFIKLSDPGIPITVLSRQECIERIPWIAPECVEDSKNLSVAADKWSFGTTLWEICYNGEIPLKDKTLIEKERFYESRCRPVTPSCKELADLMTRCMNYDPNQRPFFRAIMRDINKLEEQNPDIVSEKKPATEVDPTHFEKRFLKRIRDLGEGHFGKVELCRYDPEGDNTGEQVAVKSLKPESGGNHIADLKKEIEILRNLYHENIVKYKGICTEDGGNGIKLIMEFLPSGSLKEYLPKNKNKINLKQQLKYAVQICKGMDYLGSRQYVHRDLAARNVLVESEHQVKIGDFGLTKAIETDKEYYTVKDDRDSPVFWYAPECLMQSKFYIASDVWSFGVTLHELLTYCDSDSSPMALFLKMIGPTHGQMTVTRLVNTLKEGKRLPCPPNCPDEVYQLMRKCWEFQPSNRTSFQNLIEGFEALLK
T2 sequence (O60674 whole entry): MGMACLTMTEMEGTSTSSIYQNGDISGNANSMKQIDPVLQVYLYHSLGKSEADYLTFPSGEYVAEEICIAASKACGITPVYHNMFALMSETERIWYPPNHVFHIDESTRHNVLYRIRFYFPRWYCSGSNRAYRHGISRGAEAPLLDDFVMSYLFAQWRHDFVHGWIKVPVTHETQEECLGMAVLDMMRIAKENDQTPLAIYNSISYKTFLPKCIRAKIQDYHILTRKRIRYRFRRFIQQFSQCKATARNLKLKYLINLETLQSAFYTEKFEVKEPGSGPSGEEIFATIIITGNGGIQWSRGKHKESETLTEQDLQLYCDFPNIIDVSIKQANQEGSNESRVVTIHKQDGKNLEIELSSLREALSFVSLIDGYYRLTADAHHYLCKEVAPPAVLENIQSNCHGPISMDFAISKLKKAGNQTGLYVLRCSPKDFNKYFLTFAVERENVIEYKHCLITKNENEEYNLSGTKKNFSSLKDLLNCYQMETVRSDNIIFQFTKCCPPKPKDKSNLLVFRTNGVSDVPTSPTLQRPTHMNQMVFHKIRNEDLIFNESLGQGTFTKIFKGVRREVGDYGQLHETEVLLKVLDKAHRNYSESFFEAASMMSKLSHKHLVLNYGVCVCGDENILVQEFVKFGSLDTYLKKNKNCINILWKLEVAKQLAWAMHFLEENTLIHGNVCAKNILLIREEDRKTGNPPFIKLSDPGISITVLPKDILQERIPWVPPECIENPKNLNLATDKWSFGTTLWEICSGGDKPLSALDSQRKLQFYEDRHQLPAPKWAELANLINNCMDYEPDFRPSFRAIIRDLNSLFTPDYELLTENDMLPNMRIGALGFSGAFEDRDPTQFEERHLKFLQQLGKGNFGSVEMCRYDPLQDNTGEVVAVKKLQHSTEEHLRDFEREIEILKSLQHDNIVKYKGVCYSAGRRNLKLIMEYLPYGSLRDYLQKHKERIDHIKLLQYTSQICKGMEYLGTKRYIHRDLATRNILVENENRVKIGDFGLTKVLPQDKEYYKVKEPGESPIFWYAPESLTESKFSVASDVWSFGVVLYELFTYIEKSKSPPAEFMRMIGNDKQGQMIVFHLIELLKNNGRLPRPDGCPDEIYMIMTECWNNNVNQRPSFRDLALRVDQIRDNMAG

SMILES	IC50 [1]	IC50 [2]	IC50 [3]	IC50 [4]
CC=C[C@@H](C1CC1)n1cc(-c2nc(-c3cnn(C)c3)cc3nccn23)cn1 [Example 39, (R)-5-(1-(1-cyclopropylbut-2-en-1-yl)-1H-pyrazol-4-yl)-7-(1-methyl-1H-pyrazol-4-yl)imidazo[1,2-c]pyrimidine]	100 to 1000 nM	100 to 1000 nM	10 to 100 nM	100 to 1000 nM
C[C@@H](O)C[C@H](C1CC1)n1cc(-c2nc(-c3cnn(C)c3)cc3nccn23)cn1 [Example 40, (2R,4R)-4-cyclopropyl-4-(4-(7-(1-methyl-1H-pyrazol-4-yl)imidazo[1,2-c]pyrimidin-5-yl)-1H-pyrazol-1-yl)butan-2-ol]	> 1000 nM	100 to 1000 nM	100 to 1000 nM	> 1000 nM
C[C@H](O)C[C@@H](C1CC1)n1cc(-c2nc(-c3cnn(C)c3)cc3nccn23)cn1 [Example 41, (2S,4S)-4-cyclopropyl-4-(4-(7-(1-methyl-1H-pyrazol-4-yl)imidazo[1,2-c]pyrimidin-5-yl)-1H-pyrazol-1-yl)butan-2-ol]	> 1000 nM	100 to 1000 nM	100 to 1000 nM	> 1000 nM
CC[C@H](CCF)n1cc(-c2nc(-c3cnn(C)c3)cc3nccn23)cn1 [Example 42, (R)-5-(1-(1-fluoropentan-3-yl)-1H-pyrazol-4-yl)-7-(1-methyl-1H-pyrazol-4-yl)imidazo[1,2-c]pyrimidine]	100 to 1000 nM	10 to 100 nM	< 10 nM	100 to 1000 nM
CC[C@@H](CCF)n1cc(-c2nc(-c3cnn(C)c3)cc3nccn23)cn1 [Example 43, (S)-5-(1-(1-fluoropentan-3-yl)-1H-pyrazol-4-yl)-7-(1-methyl-1H-pyrazol-4-yl)imidazo[1,2-c]pyrimidine]	100 to 1000 nM	10 to 100 nM	10 to 100 nM	100 to 1000 nM
Cn1cc(-c2cc3nccn3c(-c3cnn(C(C/C=C\F)C4CC4)c3)n2)cn1 (stereo not drawn) [Example 44, (Z)-5-(1-(1-cyclopropyl-4-fluorobut-3-en-1-yl)-1H-pyrazol-4-yl)-7-(1-methyl-1H-pyrazol-4-yl)imidazo[1,2-c]pyrimidine]	100 to 1000 nM	10 to 100 nM	10 to 100 nM	100 to 1000 nM
CC#CCC(C1CC1)n1cc(-c2nc(-c3cnn(C)c3)cc3nccn23)cn1 (stereo not drawn) [Example 45, 5-(1-(1-cyclopropylpent-3-yn-1-yl)-1H-pyrazol-4-yl)-7-(1-methyl-1H-pyrazol-4-yl)imidazo[1,2-c]pyrimidine]	> 1000 nM	100 to 1000 nM	100 to 1000 nM	> 1000 nM
Cn1cc(-c2cc3nccn3c(-c3cnn(C4(CCF)CN(S(=O)(=O)NC5CC5)C4)c3)n2)cn1 [Example 46, N-cyclopropyl-3-(2-fluoroethyl)-3-(4-(7-(1-methyl-1H-pyrazol-4-yl)imidazo[l,2-c]pyrimidin-5-yl)-1H-pyrazol-1-yl)azetidine-1-sulfonamide]	100 to 1000 nM	100 to 1000 nM	100 to 1000 nM	> 1000 nM
Cn1cc(-c2cc3nccn3c(-c3cnn(C(CCC(F)F)C4CC4)c3)n2)cn1 (stereo not drawn) [Example 47, 5-(1-(1-cyclopropyl-4,4-difluorobutyl)-1H-pyrazol-4-yl)-7-(1-methyl-1H-pyrazol-4-yl)imidazo[1,2-c]pyrimidine]	100 to 1000 nM	10 to 100 nM	10 to 100 nM	100 to 1000 nM
Cn1cc(-c2cc3nccn3c(-c3cnn([C@H](CC=C(F)F)C4CC4)c3)n2)cn1 [Example 49, (R)-5-(1-(1-cyclopropyl-4,4-difluorobut-3-en-1-yl)-1H-pyrazol-4-yl)-7-(1-methyl-1H-pyrazol-4-yl)imidazo[1,2-c]pyrimidine]	10 to 100 nM	10 to 100 nM	< 10 nM	10 to 100 nM
Cn1cc(-c2cc3nccn3c(-c3cnn([C@@H](CC=C(F)F)C4CC4)c3)n2)cn1 [Example 50, (S)-5-(1-(1-cyclopropyl-4,4-difluorobut-3-en-1-yl)-1H-pyrazol-4-yl)-7-(1-methyl-1H-pyrazol-4-yl)imidazo[1,2-c]pyrimidine]	10 to 100 nM	< 10 nM	< 10 nM	10 to 100 nM
Cn1cc(-c2cc3nccn3c(-c3cnn(C4(CCF)CN(S(=O)(=O)C(F)F)C4)c3)n2)cn1 [Example 51]	10 to 100 nM	10 to 100 nM	< 10 nM	10 to 100 nM
Cn1cc(-c2cc3nccn3c(-c3cnn(C4(CCF)CCC4)c3)n2)cn1 [Example 52, 5-(1-(1-(2-fluoroethyl)cyclobutyl)-1H-pyrazol-4-yl)-7-(1-methyl-1H-pyrazol-4-yl)imidazo[1,2-c]pyrimidine]	100 to 1000 nM	100 to 1000 nM	10 to 100 nM	100 to 1000 nM
COCCC1(n2cc(-c3nc(-c4cnn(C)c4)cc4nccn34)cn2)CCC1 [Example 53, 5-(1-(1-(2-methoxyethyl)cyclobutyl)-1H-pyrazol-4-yl)-7-(1-methyl-1H-pyrazol-4-yl)imidazo[1,2-c]pyrimidine]	> 1000 nM	100 to 1000 nM	100 to 1000 nM	100 to 1000 nM
Cn1cc(-c2cc3nccn3c(-c3cnn(C(CC=C(F)F)C4CC4)c3)n2)cn1 (stereo not drawn) [Example 54, 5-(1-(1-cyclopropyl-4,4-difluorobut-3-en-1-yl)-1H-pyrazol-4-yl)-7-(1-methyl-1H-pyrazol-4-yl)imidazo[1,2-c]pyrimidine]	10 to 100 nM	10 to 100 nM	< 10 nM	10 to 100 nM
C#CCC(C1CC1)n1cc(-c2nc(-c3cnn(C)c3)cc3nccn23)cn1 (stereo not drawn) [Example 55, 5-(1-(1-cyclopropylbut-3-yn-1-yl)-1H-pyrazol-4-yl)-7-(1-methyl-1H-pyrazol-4-yl)imidazo[1,2-c]pyrimidine]	100 to 1000 nM	10 to 100 nM	< 10 nM	100 to 1000 nM
Cn1cc(-c2cc3nccn3c(-c3cnn(C4(CCO)CCC4)c3)n2)cn1 [Example 56, 2-(1-(4-(7-(1-methyl-1H-pyrazol-4-yl)imidazo[1,2-c]pyrimidin-5-yl)-1H-pyrazol-1-yl)cyclobutyl)ethanol]	> 1000 nM	> 1000 nM	100 to 1000 nM	> 1000 nM
CCC(CCF)n1cc(-c2nc(-c3cnn(C)c3)cc3nccn23)cn1 (stereo not drawn) [Example 57, 5-(1-(1-fluoropentan-3-yl)-1H-pyrazol-4-yl)-7-(1-methyl-1H-pyrazol-4-yl)imidazo[1,2-c]pyrimidine]	100 to 1000 nM	100 to 1000 nM	10 to 100 nM	100 to 1000 nM
